Reference: patent US20230331690A1, “THC DERIVATIVES, ORAL DOSAGE FORMS COMPRISING SAME, USES THEREOF FOR TREATING DISEASES AND DISORDERS AND SYNTHESIS THEREOF” (BAR-ILAN UNIVERSITY, priority 2020, published 2023)
“And” between values parts separate entries of the source, which are not always exact repeats. Identical values can stand only once. Like-named read-outs stand apart in the source and are kept apart here.

What was measured:
mice = test: Hot plate assay, withdrawal reflex latency (WRL); format: in vivo; conditions: for Hot plate Time: per animal
[1] = Pharmacokinetics, blood samples (Example 17); conditions: mouse, blood, ip, Component in the blood, label = analyte
Procedure: The pharmacokinetics of 9-CD3-(8-D2)-THC compared to natural THC was evaluated using both intraperitoneal i.p. injection and an oral gavage administration for each material. The mice were divided into four groups containing 6 mice (24 mice total). For each group of mice, a blood sample was withdrawn at baseline (t=0), and half-hour intervals (t=0.5, 2 and 5 h) after administration of the drug. Three mice, half of each group, were euthanized with CO2 after 5 h and their organs (brain and liver) were collected. From the second half of each group, another blood sample was withdrawn 24 h after administration, and then these animals were euthanized and the brain and liver were collected for analysis.

[2] = Pharmacokinetics, liver samples (Example 17); format: in vivo, mice; conditions: mouse, liver; for concentration at 24 h: ip; for concentration at 5 h: po
[3] = Persistence over time, liver samples postmortem (Example 18); format: in vivo, mice; conditions: for concentration at 6 h / concentration at 24 h: mouse, liver, oral, read-out: Average results for 3 mice (Table 13, liver); for concentration at 6 h: died at 6 h
Procedure: (§1) Blood samples from each mouse were collected at each time point for the pharmacokinetics tests. For 6 h after administrating of all tested drugs, and after testing their WRL on the hot plate, half the mice (n=3) of each group were sacrificed, and the liver and brain of each animal were taken for pharmacokinetics tests. From the remaining mice, blood samples were acquired at 12 h after administration for pharmacokinetics tests. At 24 h after drug administration, and after checking the WRL again, second half of each group of mice were sacrificed, and the liver and brain of each animal were taken for pharmacokinetics tests.
(§2) All the results of the brain and liver samples, which were taken postmortem 6 h or 24 h after administration (n=3) are summarized in Tables 12-13.

[4] = Persistence over time, brain samples postmortem (Example 18); format: in vivo, mice
Procedure: as §1, §2

[5] = Body temperature by rectal thermometer (hypothermia)
[6] = Persistence over time, blood samples (Example 18); format: in vivo, mice; conditions: label = analyte; for Average results, blood samples: 4 mg/kg administration
Procedure: as §1

CCCCCc1cc(O)c2c(c1)OC(C)(C)[C@@H]1CCC(C)=C[C@@H]21 [THC, Δ-9-tetrahydrocannabinol]
Hot plate Avg. 6 mice (mice; 2 mg/Kg oral, t = 0.5 h): 7.38 s | Hot plate Time (mice; 2 mg/Kg oral, t = 0.5 h): 5.7 s and 11.5 s and 8.9 s and 9.2 s and 3.2 s and 5.8 s | Hot plate Avg. 6 mice (mice; 2 mg/Kg oral, t = 3 h): 9.77 s | Hot plate Time (mice; 2 mg/Kg oral, t = 3 h): 9.5 s and 8.5 s and 18.0 s and 10.4 s and 5.3 s and 6.9 s | Hot plate Avg. 6 mice (mice; 2 mg/Kg oral, t = 6 h): 9.77 s | Hot plate Time (mice; 2 mg/Kg oral, t = 6 h): 13.5 s and 6.3 s and 12.5 s and 8.7 s and 6.6 s and 11.0 s | Hot plate Avg. 3 mice (mice; 2 mg/Kg oral, t = 24 h): 6.53 s | Hot plate Time (mice; 2 mg/Kg oral, t = 24 h): 7.8 s and 7.4 s and 4.4 s | decrease in the WRL compared to baseline (mice; 2 mg/kg, 0.5 h): 1% | change in average WRL compared to baseline (mice; 2 mg/kg, 3 h): +31% | change in average WRL compared to baseline (mice; 2 mg/kg, 6 h): +31% | Hot plate Avg. 6 mice (mice; 4 mg/Kg oral, t = 0.5 h): 12.48 s | Hot plate Time (mice; 4 mg/Kg oral, t = 0.5 h): 11.3 sec. (2×) and 19.8 sec. and 6.3 sec. and 14.0 sec. and 12.2 sec. | Hot plate Avg. 6 mice (mice; 4 mg/Kg oral, t = 3 h): 11.00 s | Hot plate Time (mice; 4 mg/Kg oral, t = 3 h): 17.3 s and 8.0 s and 9.3 s and 6.9 s and 13.9 s and 10.6 s | Hot plate Avg. 6 mice (mice; 4 mg/Kg oral, t = 6 h): 8.92 s | Hot plate Time (mice; 4 mg/Kg oral, t = 6 h): 12.1 sec. and 2.4 sec. and 3.0 sec. and 14.0 sec. (2×) and 8.0 sec. | Hot plate Avg. 3 mice (mice; 4 mg/Kg oral, t = 24 h): 10.43 s | Hot plate Time (mice; 4 mg/Kg oral, t = 24 h): 13.7 s and 12.8 s and 4.8 s | increase in the WRL compared to baseline (mice; 4 mg/kg, 0.5 h): 23% | change in average WRL compared to baseline (mice; 4 mg/kg, 3 h): +8% | change in average WRL compared to baseline (mice; 4 mg/kg, 6 h): −12% | Hot plate Avg. 6 mice (mice; 8 mg/Kg oral, t = 0.5 h): 13.22 s | Hot plate Time (mice; 8 mg/Kg oral, t = 0.5 h, cut-off 30 s): 15.2 s and 11.1 s and 14.2 s and 6.7 s and 19.6 s and 12.5 s | Hot plate Avg. 6 mice (mice; 8 mg/Kg oral, t = 3 h): 12.45 s | Hot plate Time (mice; 8 mg/Kg oral, t = 3 h, cut-off 30 s): 21.6 s and 9.0 s and 9.8 s and 9.5 s and 12.5 s and 12.3 s | Hot plate Avg. 6 mice (mice; 8 mg/Kg oral, t = 6 h): 12.03 s | Hot plate Time (mice; 8 mg/Kg oral, t = 6 h): 13.2 s and 9.2 s and 6.8 s and 16.7 s and 17.0 s and 9.3 s | Hot plate Avg. 3 mice (mice; 8 mg/Kg oral, t = 24 h): 10.27 s | Hot plate Time (mice; 8 mg/Kg oral, t = 24 h, cut-off 30 s): 8.1 s and 15.7 s and 7.0 s | average increase in WRL compared to baseline (t=0) (mice; 8 mg/kg, 0.5 h): 67.3% | change in average WRL compared to t=0 at baseline (mice; 8 mg/kg, 3 h): +57.5% | change in average WRL compared to baseline (mice; 8 mg/kg, 6 h): +52% | concentration at 0.5 h ([1]; Average, 0.5 h after i.p. injection of THC or THC-d5, n=6 (THC-d5 n=5)): 63.4 ng/mL | concentration at 0.5 h ([1]; mouse 1, 0.5 h after i.p. injection of THC or THC-d5): 76.8 ng/mL | concentration at 0.5 h ([1]; mouse 2, 0.5 h after i.p. injection of THC or THC-d5): 81.9 ng/mL | concentration at 0.5 h ([1]; mouse 3, 0.5 h after i.p. injection of THC or THC-d5): 49.5 ng/mL | concentration at 0.5 h ([1]; mouse 4, 0.5 h after i.p. injection of THC or THC-d5): 64.4 ng/mL | concentration at 0.5 h ([1]; mouse 5, 0.5 h after i.p. injection of THC or THC-d5): 53.8 ng/mL | concentration at 0.5 h ([1]; mouse 6, 0.5 h after i.p. injection of THC or THC-d5): 53.9 ng/mL | concentration at 24 h ([2]; 24 h after i.p. administration, n=3, read-out: average liver concentration): 7.62 ng/g | concentration at 24 h ([2]; 24 h after i.p. injection of THC or THC-d5, label = analyte, n=3, read-out: Component in the liver, Average): 7.62 ng/mL | concentration at 24 h ([2]; 24 h after i.p. injection of THC or THC-d5, label = analyte, read-out: Component in the liver, mouse 1): 5.55 ng/mL | concentration at 24 h ([2]; 24 h after i.p. injection of THC or THC-d5, label = analyte, read-out: Component in the liver, mouse 2): 8.46 ng/mL | concentration at 24 h ([2]; 24 h after i.p. injection of THC or THC-d5, label = analyte, read-out: Component in the liver, mouse 3): 8.86 ng/mL | concentration at 5 h ([2]; 5 h after oral gavage administration of THC or THC-d5, label = analyte, n=3, read-out: Component in the liver, Average): 3.77 ng/mL | concentration at 5 h ([2]; 5 h after oral gavage administration of THC or THC-d5, label = analyte, read-out: Component in the liver, mouse 1): 1.41 ng/mL | concentration at 5 h ([2]; 5 h after oral gavage administration of THC or THC-d5, label = analyte, read-out: Component in the liver, mouse 2): 4.94 ng/mL | concentration at 5 h ([2]; 5 h after oral gavage administration of THC or THC-d5, label = analyte, read-out: Component in the liver, mouse 3): 4.97 ng/mL | concentration at 5 h ([2]; 5 h after oral gavage administration, n=3, read-out: average liver concentration): 3.77 ng/g | Average results for 3 mice (Table 13, liver) ([3]; 2 mg/kg administered, died at 24 h, number in brackets = mice with a value): 0.74 (2/3) ng/g | concentration at 6 h ([3]; 2 mg/kg administered): 9.18 ng/g | concentration at 6 h ([3]; 4 mg/kg administered): 11.4 ng/g | concentration at 24 h ([3]; 4 mg/kg administered, died at 24 h, number in brackets = mice with a value): 0.87 ng/g | concentration at 6 h ([3]; 8 mg/kg administered): 11.1 ng/g | concentration at 24 h ([3]; 8 mg/kg administered, died at 24 h, number in brackets = mice with a value): 3.52 ng/g | presence in the brain ([4]; 24 h after administration, highest concentration of 8 mg/kg): absent | concentration at 24 h ([4]; mouse, brain, oral, 4 mg/kg administered, died at 24 h, number in brackets = mice with a value, read-out: Average results for 3 mice - brain samples): 14.1 ng/g | concentration at 6 h ([4]; mouse, brain, oral, 8 mg/kg administered, died at 6 h, number in brackets = mice with a value, read-out: Average results for 3 mice - brain samples): 16.9 ng/g | time of strongest effect on body temperature after drug administration ([5]; high concentration of 8 mg/kg oral): 0.5 h | hypothermia effect (body temperature) ([5]; medium concentration of 4 mg/kg oral): very clear hypothermia effect | Body temperature, Avg. change compared to t = 0, at t = 0.5 h ([5]; mice, avg. of 6 mice, 8 mg/kg (groups C+D), t = 0.5 h after administration): −2.1 °C | Average results, blood samples ([6]; Time 3 h): 2.78 (4/6) ng/mL | Average results, blood samples ([6]; Time 6 h): 2.44 (5/5) ng/mL | Average results, blood samples ([6]; Time 24 h (3 mice)): 0.25 (2/2) ng/mL | concentration at 0.5 h ([6]; mouse, blood, oral, 4 mg/kg administration of THC or THC-d5, Time 0.5 h): 10.5 ng/mL | concentration at 0.5 h ([6]; mouse, blood, oral, 8 mg/kg administration of THC or THC-d5, Time 0.5 h): 14.3 ng/mL | concentration at 3 h ([6]; mouse, blood, oral, 8 mg/kg administration, Time 3 h): 6.53 ng/mL | concentration at 6 h ([6]; mouse, blood, oral, 8 mg/kg administration, Time 6 h): 4.14 ng/mL | concentration at 12 h ([6]; mouse, blood, oral, 8 mg/kg administration, Time 12 h (3 mice)): 0.81 ng/mL | concentration at 24 h ([6]; mouse, blood, oral, 8 mg/kg administration, Time 24 h (3 mice)): 0.26 ng/mL
